Columns and labels:
mammalian cells = conditions: cell culture studies; cited from earlier work
[1] = system: piglets weaned at 28 days (control of E. coli infection); assay: Pig trial 1: weight gain and feed intake of weaned piglets; format: in vivo, pigs
Procedure: A trial was conducted to determine the potential impact of the compositions of the invention for controlling E. coli infection and improving animal health.
Piglets were weaned at 28 days of age with an average weight of 8.6±0.98 kg. At weaning (i.e. no longer suckling), litters were homogenized to a maximum of 14 pigs and assigned to either a control group (no additional feed component), to a first test group to which the composition of the invention was administered, and to a second test group to which zinc oxide was administered. Pigs were fed starter diets up until day 14 of the trial when the trial completed.
Group weight and feed intake was recorded at day 0, 7 and 14 of the experiment.
The composition of the invention comprised: 10 mg LPO and 8 mg KI and excipients. The composition was formulated as a powder. The composition was administered once daily with feed for 14 days. […] Zinc oxide was administered to the second test group at a concentration of 3000 ppm i.e. 3 g/kg of feed.

[2] = system: pigs at weaning (scour/diarrhea); assay: Pig trial 2: 240 weaned pigs, weight, health and cleanliness scores; format: in vivo
Procedure: A further study involving 240 pigs was carried out with a higher dose of lactoperoxidase and potassium iodide. The pigs were weighed and allocated to the trail at weaning (approximately 28 days of age).
The groups were homogenized with respect to group total weight and gender profile, and each group was divided into pens, with 5 pigs per pen. […] The pigs were weighed individually at the start of the study on day 7 and on day 14. Pigs were assessed each morning for general health, faeces was examined—to check for scour/diarrhea, and pigs per give a cleanliness score

[3] = Lactoperoxidase ABTS activity (UV-vis); format: biochemical; conditions: 1000 units = amount of enzyme that oxidises 1 mmol of ABTS in 5 minutes at pH 6.0 and 35° C.
Procedure: Lactoperoxidase was isolated from bovine milk. The lactoperoxidase activity (U/mg) was greater than 1000 units ABTS activity (determined using UV-vis). 1000 units ABTS activity (U): amount of enzyme that oxidises 1 mmol of ABTS in 5 minutes at pH 6.0 and 35° C. ABTS: 2,2′-azinobis-(3-ethyl benzthiazoline-6-sulphonic acid).

## OO [hydrogen peroxide]
Mammalian cells
  cytotoxic concentrations: 0.05 to 0.58 mmol/L

## [O]=[Zn] [zinc oxide]
[1]; Day 0 (baseline at weaning)
  Average body weight: 8.5 kg
[1]; Day 7, Test 1: 10 mg LPO and 8 mg KI daily, Test 2: zinc oxide 3000 ppm in feed
  Average body weight: 10.1 kg
[1]; Day 14, Test 1: 10 mg LPO and 8 mg KI daily, Test 2: zinc oxide 3000 ppm in feed
  Average body weight: 13.7 kg
[1]; piglets weaned at 28 days, Test 1: 10 mg LPO and 8 mg KI powder once daily with feed for 14 days, Test 2: zinc oxide 3000 ppm in feed
  Average daily gain day 14: 369 g/day
[1]; piglets weaned at 28 days, Test 1: 10 mg LPO and 8 mg KI powder once daily, Test 2: zinc oxide 3000 ppm in feed
  Average daily feed intake day 14: 455 g/day
[2]; PC: 3100 ppm ZnO diet, test: 20 mg LPO and 20 mg KI per day, NC diet approximately 0.8 kg less than PC
  pig weight at the end of the 14 days: heaviest
[2]; score 1 (clean) to 4 (heavily contaminated with faecal material), 14 day study
  cleanliness score: lowest cleanliness score

## Lactoperoxidase
[3]
  lactoperoxidase activity (units ABTS activity): greater than 1000 U/mg
